Entries after “also recorded” stand apart in the source; their conditions may differ.
Legend:
Format in all cases: in vivo, human
secondary CNS lymphoma = experiment: illustrative treatment of first patient (large-B cell lymphoma, CNS relapse), MRI follow-up; details: for severe treatment-related toxicities requiring inpatient management: earlier therapies
Description: Staging documented concomitant right adrenal involvement. Treatment at an outside institution consisted of six cycles of high-dose methotrexate (HD-MTX) intercalated with rituximab, cyclophosphamide, adriamycin, vincristine, prednisone (R-CHOP) plus intrathecal cytarabine, also six cycles. At 7 months there was multifocal CNS progression and the patient was transferred to a tertiary care center where they received eight cycles of HD-MTX, six doses of temozolomide plus rituximab (MTR), consolidation with etoposide-ara-C (Soussain et al, J. Clin. Oncol 19:[…]; Rubenstein et al, J. Clin Oncol. 31:3061-8, 2013) followed by autologous stem cell transplantation and lenalidomide maintenance. However, at 6 months after transplantation, multifocal CNS progression was again evident on magnetic resonance imaging (MRI). This second relapse was treated with repeat HD-MTX (eight cycles) plus rituximab followed by focal irradiation to a refractory lesion in the right postcentral gyrus, followed by pomalidomide maintenance, resulting in a CNS response duration of nearly 2 years. A third isolated CNS relapse manifested by new multifocal lesions with mild left-to-right midline shift.
Ibrutinib was therefore discontinued and the patient continued on lenalidomide (10 mg/day), now co-administered with intravenous tafasitamab (12 mg/kg), without dexamethasone, following the schedule of the L-MIND study. […] The patient continues twice monthly infusion of tafasitamab, plus lenalidomide days 1-21, and remains in radiographic remission, both in brain and systemically, at 22 months since starting this combination.

primary CNS lymphoma = experiment: illustrative treatment of second patient (multifocal primary CNS lymphoma, large B-cell type), MRI follow-up
Protocol: At first relapse they were re-treated with MTR followed by lenalidomide maintenance (5 mg/day) with intermittent high-dose methotrexate/rituximab every 4 months, resulting in sustained disease control on MRI for 3 years. At progression on lenalidomide they were re-challenged with MTR but immediately experienced growth of new lesions in the left frontal lobe, centrum semiovale and splenium of the corpus callosum. […] However, the corpus callosal lesion was resistant. […] (For image, see, Rauschecker et al., Br J Haematol, 201:154-157, first published January 23 2023).

relapsed CNS lymphoma = experiment: phase I trial of tafasitamab plus lenalidomide in relapsed CNS lymphoma (NCT05351593); details: Patient 2; lenalidomide 15 mg/day, off study
Protocol: This patient's disease previously progressed on lenalidomide monotherapy at a higher dose of 15 mg/day.
The role of tafasitamab in these cases is evident based on prior resistance to lenalidomide, pomalidomide and rituximab.
Three were treated at the 10 mg lenalidomide dose level and one at the 15 mg lenalidomide dose level. […] The longest response duration was six months.
Illustrative responses of patient 2 in this study are depicted in FIG. 1.

Structure (SMILES): C=CC(=O)N1CCC[C@@H](n2nc(-c3ccc(Oc4ccccc4)cc3)c3c(N)ncnc32)C1 [ibrutinib]
- severe treatment-related toxicities requiring inpatient management (secondary CNS lymphoma): pancytopenia, gastrointestinal bleeding, and necrotizing gangrenous cholecystitis

Structure (SMILES): Nc1cccc2c1CN(C1CCC(=O)NC1=O)C2=O (stereo not shown) [lenalidomide]
- sustained disease control on MRI (primary CNS lymphoma; first relapse, MTR then lenalidomide maintenance 5 mg/day with intermittent high-dose methotrexate/rituximab every 4 months): 3 years
- response duration (primary CNS lymphoma; lenalidomide maintenance 5 mg/day, days 1-21, after complete response with MTR): 17 months
- time to multifocal CNS progression on MRI after transplantation (secondary CNS lymphoma; lenalidomide maintenance after autologous stem cell transplantation): 6 months
- disease response to earlier lenalidomide monotherapy (relapsed CNS lymphoma): progressed; also recorded: refractory

Structure (SMILES): Nc1cccc2c1C(=O)N(C1CCC(=O)NC1=O)C2=O (stereo not shown) [pomalidomide]
- severe treatment-related toxicities requiring inpatient management (secondary CNS lymphoma): two independent episodes of pneumonia, associated with respiratory syncytial virus and later, aspergillosis
- CNS response duration (secondary CNS lymphoma; pomalidomide maintenance after repeat HD-MTX plus rituximab and focal irradiation): ~2 years

— patent US20240360215A1, “ANTI-CD19 ANTIBODY IN THE TREATMENT OF CNS LYMPHOMA” (The Regents of the University of California, priority 2023, published 2024)
